Reference: US6693174B2, “Gene regulating aureobasidin sensitivity” (Takara Shuzo Co., Ltd., priority 1993, dated 2004)
In brackets after ≈: the same amount, converted by molar mass. *1 amine or outer side, *2 acyl side, *3 side chain or, on linkers, in order; H or OH if unused. Where a SMILES comes first, the peptide text is derived from it. [ ]: non-standard residue; d: D form. X1 = CC[C@@H](C)[C@@H](O[*:1])C(=O)[*:2]; NMeVal(β-OH) = CN[C@H](C(=O)O)C(C)(C)O; NMeF = CN[C@@H](Cc1ccccc1)C(=O)O; aIle = CC[C@@H](C)[C@H](N)C(=O)O; NMeV = CN[C@H](C(=O)O)C(C)C

Assays:
[1] = test system: A. nidulans FGSC89 aureobasidin resistant colonies; test: Drug resistance of aureobasidin resistant mutants of A. nidulans; details: for sensitivities of the resistant cells compared with the parent strain: UV-induced resistant colonies vs FGSC89
Schizo. pombe = test: MIC of aureobasidin, test strain or cell (Table 3); type: cell-based, Schizosaccharomyces pombe
S. cerevisiae = test: MIC of aureobasidin, test strain or cell (Table 3); type: cell-based, Saccharomyces cerevisiae
mouse lymphoma EL-4 = test: MIC of aureobasidin, test strain or cell (Table 3); type: cell-based
mouse lymphoma L5178Y = test: MIC of aureobasidin, test strain or cell (Table 3); type: cell-based
NRK-49F = test: MIC of aureobasidin, test strain or cell (Table 3); type: cell-based
[2] = test system: Schizo. pombe diploid cells (resistant strains x LH121); test: Resistance of diploids formed by crossing resistant strains with normal strain LH121; type: cell-based, Schizosaccharomyces pombe; details: five diploids, resistant strains crossed with LH121
S. cerevisiae DKD5D = test: Sensitivity of parent strain to aureobasidin; type: cell-based, Saccharomyces cerevisiae
Experimental: (§1) Then resistant mutants were separated on an agar plate of a complete nutritional medium YPD (1% of yeast extract, 2% of polypeptone, 2% of glucose) containing 5 μg/ml or 1.5 μg/ml of aureobasidin A. After repeating the mutagenesis several times, 34 mutant clones were obtained.

[3] = test system: S. cerevisiae DKD5D resistant mutant clones; test: Resistance of aureobasidin resistant mutants of S. cerevisiae; type: cell-based, Saccharomyces cerevisiae; details: 34 EMS mutant clones of DKD5D
Experimental: as §1

[4] = test system: C. albicans TIMM0136 transformants; test: MIC for C. albicans transformants obtained with SalI-linearized pUscaur1R-C; type: cell-based, Candida albicans; details: C. albicans TIMM0136 transformants by SalI-linearized pUscaur1R-C
Experimental: 14-a) 5 μg of a linear plasmid, which had been prepared by cleaving pUscaur1^R-C with SalI capable of cleaving at one point in the pUC119 region, was transformed into C. albicans TIMM0136 by the lithium acetate method.

C. albicans = C. albicans TIMM No. 0136; cited from earlier work
[5] = test system: C. albicans var. stellatoidea; details: C. albicans var. stellatoidea TIMM No. 1308; cited from earlier work
C. tropicalis = C. tropicalis TIMM No. 0312; cited from earlier work
C. kefyr = C. kefyr TIMM No. 0298; cited from earlier work
C. parapsilosis = C. parapsilosis TIMM No. 0287; cited from earlier work
C. krusei = C. krusei TIMM No. 0270; cited from earlier work
C. guilliermondii = C. guilliermondii TIMM No. 0257; cited from earlier work
C. glabrata = C. glabrata TIMM No. 1062; cited from earlier work
Cr. neoformans = Cr. neoformans TIMM No. 0354; cited from earlier work
Cr. terreus = Cr. terreus TIMM No. 0424; cited from earlier work
Rhodotorula rubra = Rhodotorula rubra TIMM No. 0923; cited from earlier work
A. fumigatus = A. fumigatus TIMM No. 0063; cited from earlier work
A. clavatus = A. clavatus TIMM No. 0056; cited from earlier work
A. nidulans = A. nidulans TIMM No. 0112; cited from earlier work
A. terreus = A. terreus TIMM No. 0120; cited from earlier work
Penicillium commune = Penicillium commune TIMM No. 1331; cited from earlier work
[6] = test system: Trichophyton mentagrophytes; details: Trichophyton mentagrophytes TIMM No. 1189; cited from earlier work
Epidermophyton floccosum = Epidermophyton floccosum TIMM No. 0431; cited from earlier work
Fonsecaea pedrosoi = Fonsecaea pedrosoi TIMM No. 0482; cited from earlier work
Exophiala werneckii = Exophiala werneckii TIMM No. 1334; cited from earlier work
Cladosporium bantianum = Cladosporium bantianum TIMM No. 0343; cited from earlier work
Histoplasma capsulatum = details: cited from earlier work
[7] = test system: Paracoccidioides brasiliensis; details: Paracoccidioides brasiliensis TIMM No. 0880; cited from earlier work
Geotrichum candidum = Geotrichum candidum TIMM No. 0694; cited from earlier work
Blastomyces dermatitidis = Blastomyces dermatitidis TIMM No. 0126; cited from earlier work
[8] = cited from earlier work
[9] = in contrast to existing antimycotics with only a fungistatic action; cited from earlier work
[10] = test system: Schizo. pombe haploid cell strain JY745; test: Sensitivity of parent strain to aureobasidin
A. nidulans FGSC89 = test: Sensitivity of parent strain to aureobasidin
[11] = test system: Sake yeast Kyokai K-701/pAUR1; test: Aureobasidin sensitivity of transformant after subculture without aureobasidin A; details: K-701/pAUR1 vs Sake yeast Kyokai K-701
[12] = test system: Sake yeast Kyokai K-701 transformants; test: Aureobasidin A resistance of sake yeast transformants obtained with pYCscaur1R-C; details: transformants by pYCscaur1R-C, after subculture over several generations
[13] = test system: Sake yeast Kyokai K-701 transformants; test: Aureobasidin A resistance of sake yeast transformants obtained with StuI-linearized plasmids; details: transformants by StuI-linearized plasmids, after subculture over several generations

C[C@@H]1[C@H](O)[C@@H](C)/C=C/C=C/C=C/C=C/C=C/C=C/C=C/[C@H](O[C@@H]2O[C@H](C)[C@@H](O)[C@H](N)[C@@H]2O)C[C@@H]2O[C@](O)(C[C@@H](O)C[C@@H](O)[C@H](O)CC[C@@H](O)C[C@@H](O)CC(=O)O[C@H]1C)C[C@H](O)[C@H]2C(=O)O [amphotericin B]
sensitivities of the resistant cells compared with the parent strain [1]: the same as the parent strain

CC[C@@H](C)[C@@H]1NC(=O)[C@@H]2CCCN2C(=O)[C@H](Cc2ccccc2)N(C)C(=O)[C@H](Cc2ccccc2)NC(=O)[C@H](C(C)C)N(C)C(=O)[C@@H]([C@H](C)CC)OC(=O)[C@H](C(C)(C)O)N(C)C(=O)[C@H](CC(C)C)NC(=O)[C@H](C(C)C)N(C)C1=O [aureobasidin A] (cyclo(F[NMeF]P[aIle][NMeV]L[NMeVal(β-OH)][X1][NMeV]))
MIC (Schizo. pombe): 0.08 µg/mL
MIC (S. cerevisiae): 0.31 µg/mL
MIC (mouse lymphoma EL-4): 10 µg/mL
MIC (mouse lymphoma L5178Y): 100 µg/mL
MIC (NRK-49F): 12.5 µg/mL
resistant to (concentration of aureobasidin A) [2]: 25 µg/mL
sensitivity to aureobasidin at a concentration of (S. cerevisiae DKD5D): 0.31 µg/mL
resistant to (concentration of aureobasidin A) [3]: more than 25 μg/ml
MIC [4]: ≥ 10 µg/mL
MIC (C. albicans): ≦0.04 μg/ml
MIC [5]: ≦0.04 μg/ml
MIC (C. tropicalis): 0.08 µg/mL (≈ 0.0726 µM)
MIC (C. kefyr): 0.16 µg/mL (≈ 0.145 µM)
MIC (C. parapsilosis): 0.16 µg/mL (≈ 0.145 µM)
MIC (C. krusei): ≦0.04 μg/ml
MIC (C. guilliermondii): 0.08 µg/mL (≈ 0.0726 µM)
MIC (C. glabrata): ≦0.04 μg/ml
MIC (Cr. neoformans): 0.63 µg/mL (≈ 0.572 µM)
MIC (Cr. terreus): 0.31 µg/mL (≈ 0.281 µM)
MIC (Rhodotorula rubra): 0.63 µg/mL (≈ 0.572 µM)
MIC (A. fumigatus): 20 µg/mL (≈ 18.2 µM)
MIC (A. clavatus): 0.16 µg/mL (≈ 0.145 µM)
MIC (A. nidulans): 0.16 µg/mL (≈ 0.145 µM)
MIC (A. terreus): 5 µg/mL (≈ 4.54 µM)
MIC (Penicillium commune): 1.25 µg/mL (≈ 1.13 µM)
MIC [6]: 10 µg/mL (≈ 9.08 µM)
MIC (Epidermophyton floccosum): 2.5 µg/mL (≈ 2.27 µM)
MIC (Fonsecaea pedrosoi): 0.31 µg/mL (≈ 0.281 µM)
MIC (Exophiala werneckii): 1.25 µg/mL (≈ 1.13 µM)
MIC (Cladosporium bantianum): 0.63 µg/mL (≈ 0.572 µM)
MIC (Histoplasma capsulatum): 0.16 µg/mL (≈ 0.145 µM)
MIC [7]: 0.31 µg/mL (≈ 0.281 µM)
MIC (Geotrichum candidum): 0.63 µg/mL (≈ 0.572 µM)
MIC (Blastomyces dermatitidis): 0.31 µg/mL (≈ 0.281 µM)
toxicity in mammal [8]: extremely low toxicity
action (germicidal versus fungistatic) [9]: germicidal action
sensitivity to aureobasidin at a concentration of [10]: 0.08 µg/mL
sensitivity to aureobasidin at (A. nidulans FGSC89): 5 µg/mL
resistance to (concentration of aureobasidin) ([1]; eight UV-induced resistant colonies): 80 µg/mL
aureobasidin resistance relative to the parent strain [11]: eight times
aureobasidin A resistance relative to the parent strain [12]: at least 10 times
aureobasidin A resistance relative to the parent strain [13]: at least 10 times

Clc1ccccc1C(c1ccccc1)(c1ccccc1)n1ccnc1 [clotrimazole]
sensitivities of the resistant cells compared with the parent strain [1]: the same as the parent strain

C[C@@H]1C[C@@H]([C@H](O)CC2CC(=O)NC(=O)C2)C(=O)[C@@H](C)C1 [cycloheximide]
sensitivities of the resistant cells compared with the parent strain [1]: the same as the parent strain
